# Results: PMC8646019, “Azvudine is a thymus-homing anti-SARS-CoV-2 drug effective in treating COVID-19 patients” (Signal Transduction and Targeted Therapy, 2021)
# Assay: Biodistribution and metabolism of FNC in rats (UHPLC-MS/MS)
# Settings: male, Sprague-Dawley, in vivo, rat, FNC 5 mg/kg oral, average n=5, read-out: Concentration in kidney
# Protocol: Fig. 2 Thymus-homing distribution and metabolism of FNC after oral administration in rats. Twenty-five male Sprague–Dawley rats were orally administered with FNC at a single dose of 5 mg/kg. At the time point of 1, 2, 6, 12, and 24 h after drug administration, 5 rats were dissected. The blood, as well as the heart, liver, spleen, lung, kidney, brain, thymus, testis, and epididymis, were collected. Peripheral blood mononuclear cells (PBMCs) were isolated from blood using Histopaque-1083. The distribution of FNC in plasma, PBMCs, and the different tissues was evaluated through UHPLC–MS/MS analysis performed on an UHPLC system (1290 series, Agilent Technologies, USA) coupled to a triple quadrupole mass spectrometer (Agilent 6470 QQQ). a Metabolic pathway of FNC. b FNC distribution in tissues and plasma (5 mg/kg, oral). c FNC-TP levels in the blood (5 mg/kg, oral). d FNC-TP levels in tissues (5 mg/kg, oral). e FNC and its phosphate metabolites (FNC-MP, FNC-DP, and FNC-TP) in the thymus (5 mg/kg). f FNC and its phosphate metabolites in PBMCs (5 mg/kg).
# 25 male Sprague-Dawley rats (200 ± 15 g) were purchased from Vital River Laboratories Co., LTD (Beijng, China). The animals were housed under specific pathogen-free conditions (12 h light/12 h dark photoperiod, 25 ± 2°C, 50±5% relative humidity). All rats were allowed to acclimate for 1 week before experiments. Research was conducted in accordance with all institutional guidelines and ethics and approved by the Laboratories Institutional Animal Care and Use Committee of the Chinese Academy of Medical Sciences and Peking Union Medical College.
# Rats were divided randomly into five groups with five rats in each, and were administered with azvudine at a single dose of 5 mg/kg. At the time point of 1h, 2h, 6h, 12h and 24h after drug administration, rats in one group were dissected with euthanization and blood samples were collected using heparin as an anticoagulant. 0.5 ml of blood was transferred to another 1.5ml eppendorf tube to obtain plasma by centrifugation (3500 r/min ×15 min). The tissues, including heart, liver, spleen, lung, kidney, brain, thymus, testis, and epididymis, were collected, and washed with cold 0.9% normal saline, and then kept at -80°C until analysis.
# Peripheral blood mononuclear cells (PBMCs) were isolated from blood using Histopaque-1083 according to the manufacturer’s protocol. Firstly, 2 mL of blood collected in heparin sodium tube was diluted with 2 mL of PBS solution. Then, 4mL of diluted blood was layered on top of 4 mL Histopaque-1083 and centrifuged for 30 min at 2000 r/min. PBMCs were then aspirated, washed twice with PBS solution, suspended in PBS, and counted with a hemocytometer. Furtherly, PBMCs were centrifuged (2000 r/min ×10 min), lysed with 1ml of cold 80% methanol for 12h, then ultrasonic for cell disruption (3min). Finally, the cell lysates were stored in -80°C until sample preparation.
# Tissue samples were weighed and 2-fold volume of 0.9% saline containing phosphatase inhibitor was added to prepare the homogenate on the ice. Then tissue homogenate was ultrasonic extracted for 5 min in the ice bath. 200μL of plasma or tissue homogenate was transferred into a 1.5 ml eppendorf tube and added 600 μL of methanol solution with internal standards. The sample was vortexed for 5 min and kept at 4°C for 15min, then centrifuged at 13000r/min for 10 min (4°C). […]
structure (smiles),measurement,setting,value
"[N-]=[N+]=N[C@]1(CO)O[C@@H](n2ccc(N)nc2=O)[C@@H](F)[C@@H]1O [FNC, 2′-deoxy-2′-β-fluoro-4′-azidocytidine]",concentration at 1 h,1 h,515 ng/g
same,concentration at 2 h,2 h,798 ng/g
same,concentration at 6 h,6 h,269 ng/g
same,concentration at 12 h,12 h,76.5 ng/g
same,concentration at 24 h,24 h,78.1 ng/g
